Experimental data reported in patent publication US8835632B2, “Methods to increase the photostability of dyes” (The University of North Carolina at Chapel Hill, priority 2007, dated 2014).

Columns and labels:
Format in all cases: physicochemical
[1] = Photobleaching under constant illumination from a halogen tungsten lamp filtered through glass
Description: The photostability of dyes can be important for applications in living cells. The mechanism of photobleaching for merocyanines of varying structure has been examined See Toutchkine et al., J. Am. Chem. Soc. 125:4132-4145 (2003). The photostability of the presently disclosed dyes was characterized by exposing them to constant illumination from a halogen tungsten lamp filtered through glass. This broad spectrum light source provided essentially equal intensity throughout the spectral range where the dyes absorb and where they would be irradiated in vivo (about 600 nm to about 650 nm).

[2] = Absorption and fluorescence spectra, extinction coefficient, fluorescence quantum yield
Procedure: Absorption spectra were recorded on a Hewlett-Packard 8453 diode array UV-Vis spectrophotometer (Agilent Technologies, Inc., Santa Clara, Calif.), and fluorescence measurements were taken on a SPEX® Fluorolog 2 spectrofluorometer (HORIBA Jobin Yvon, Inc., Edison, N.J.). Melting points are not corrected. NMR spectra were obtained on a Varian Mercury 300 MHz (Varian, Inc., Palo Alto, Calif.) or on a Bruker 300 MHz DRX 300 spectrometer (Bruker Biospin Corp., Billerica, Mass.). Mass spectra were obtained on a Hewlett-Packard 1100 high-performance liquid chromatograph equipped with an 1100 mass selective detector (MS-ESI) (Agilent Technologies, Inc.).
With decreasing solvent polarity, the absorption maximum of dyes 1a-b, 2a-d shifted to longer wavelengths, and the intensity of the transition increased (Table 10, FIG. 11).
The SCRF/VSCRF predicted emission energies and the solute dipole moments before and after the vertical emission process are given in Table 16. The dipole moments of AI-BA(4) and AI-SO(4) are further decreased on the S1 surface after geometry relaxation (in MeOH solution), and then increased during the S1→S0 transition. This observation is consistent with the blue shifts of the emission bands of AI-BA(4) and AI-SO(4) with increasing solvent polarity from C6H6 to MeOH. By contrast, the dipole moment of I-SO further decreases after S1 state geometry relaxation, and then decreases during the vertical emission process. This observation also is in agreement with the red shift of the I-SO emission band with increasing solvent polarity from C6H6 to MeOH. Similarly to the absorption case, a negligible red shift (ΔEem=0.017 eV) was predicted for the emission band of I-TBA with increasing solvent polarity. A small red shift from C6H6 to DMF (with ΔEem=0.020 eV, or Δλmax=6 nm) is observed. The nearly equal emission energy observed in C6H6 and MeOH can again result in the explicit interactions between the solute and solvent molecules.

[3] = Relative rate of reaction with chemically generated singlet oxygen in DMSO; conditions: 2.5 mM, 1O2 from 1,4-dimethylnaphtalene-1,4-endoperoxide
Procedure: The bleaching rates for the dyes differed by two orders of magnitude. The relative rate constants kr (rel) for product formation during reaction with singlet oxygen were measured by comparing the percent conversions for dyes dissolved in DMSO containing a fixed amount of ^1O2 (2.5 mM solutions; ^1O2 generated by decomposition of 1,4-dimethylnaphtalene-1,4-endoperoxide). The rates were generally higher for dyes with a polar ground state (1a, 2a, 2b, 2d) than for the dyes with their ground state at the “cyanine limit” (3, 4). […] Olefins without allylic hydrogens react with singlet oxygen to form dioxetanes. Dioxetanes are unstable and decompose, to form two carbonyl compounds.

[4] = MeOH, with respect to standard I-TBA in MeOH

## CC1(C)c2ccccc2-[n+]2ccc(/C=C/C=C/C3=C(O)c4ccccc4S3(=O)=O)cc21 [AI-SO]
[1]; C6H6
  kph * 10^6 (absolute rate of photobleaching): 128 s^−1
[1]; C6H6, with respect to standard I-SO in C6H6
  kph(rel) (relative rate of photobleaching): 115
[1]; MeOH
  kph * 10^6 (absolute rate of photobleaching): 89 s^−1
[1]; [4]
  kph(rel) (relative rate of photobleaching): 261
[2]; Butanol (BuOH)
  Absorbance λmax: 650 nm
  Emission λmax: 675 nm
  Extinction coefficient ε: 118000
  Fluorescence quantum yield Φ: 0.92
[2]; C6H6
  Absorption energy Eabs Exp: 1.826 eV
  Emission energy Eem Exp: 1.794 eV
[2]; MeOH
  Absorption energy Eabs Exp: 2.120 eV
  Emission energy Eem Exp: 1.865 eV
[2]; Methanol (MeOH)
  Absorbance λmax: 610 nm
  Emission λmax: 654 nm
  Extinction coefficient ε: 65000
  Fluorescence quantum yield Φ: 0.54
[2]; Table 10, BuOH
  Observed absorption (ε): (118000)
  Observed absorption λmax: 650 nm
[2]; Table 10, C6H6
  Observed absorption (ε): (240000)
  Observed absorption λmax: 679 nm
[2]; Table 10, CH2Cl2
  Observed absorption (ε): (278000)
  Observed absorption λmax: 667 nm
[2]; Table 10, CH3CN
  Observed absorption (ε): (142000)
  Observed absorption λmax: 642 nm
[2]; Table 10, DMF
  Observed absorption (ε): (154000)
  Observed absorption λmax: 651 nm
[2]; Table 10, DMSO
  Observed absorption (ε): (118000)
  Observed absorption λmax: 644 nm
[2]; Table 10, EtOH
  Observed absorption (ε): (83000)
  Observed absorption λmax: 636 nm
[2]; Table 10, MeOH
  Observed absorption (ε): (65000)
  Observed absorption λmax: 610 nm
[2]; Table 10, OcOH
  Observed absorption (ε): (150000)
  Observed absorption λmax: 660 nm
[2]; Table 10, i-PrOH
  Observed absorption (ε): (122000)
  Observed absorption λmax: 648 nm
[2]; Table 12, C6H6
  Absorption Exp wavelength: 679 nm
[2]; Table 12, MeOH
  Absorption Exp wavelength: 585 nm
[2]; Table 15, BuOH
  Observed emission (Φ): 0.92
  Observed emission λmax: 675 nm
[2]; Table 15, C6H6
  Observed emission (Φ): 0.19
  Observed emission λmax: 691 nm
[2]; Table 15, CH2Cl2
  Observed emission (Φ): 0.54
  Observed emission λmax: 681 nm
[2]; Table 15, CH3CN
  Observed emission (Φ): 0.75
  Observed emission λmax: 667 nm
[2]; Table 15, DMF
  Observed emission λmax: 673 nm
[2]; Table 15, DMSO
  Observed emission λmax: 673 nm
[2]; Table 15, EtOH
  Observed emission (Φ): 0.82
  Observed emission λmax: 671 nm
[2]; Table 15, MeOH
  Observed emission (Φ): 0.54
  Observed emission λmax: 665 nm
[2]; Table 15, OcOH
  Observed emission (Φ): 0.88
  Observed emission λmax: 679 nm
[2]; Table 15, i-PrOH
  Observed emission (Φ): 0.96
  Observed emission λmax: 673 nm
[3]
  kr(rel) (relative rate constants for product formation during reaction with singlet oxygen produced chemically): 59.2

## CCN1C(=O)\C(=C/C=C/C=C2/N(C)c3ccccc3C2(C)C)C(O)N(CC)C1=S (stereo not shown) [I-TBA, reference compound]
[1]; MeOH
  kph * 10^6 (absolute rate of photobleaching): 0.34 s^−1
[1]; [4]
  kph(rel) (relative rate of photobleaching): 1.00
[2]; C6H6
  Absorption energy Eabs Exp: 2.123 eV
  Emission energy Eem Exp: 2.050 eV
[2]; MeOH
  Absorption energy Eabs Exp: 2.127 eV
  Emission energy Eem Exp: 2.056 eV
[2]; Table 10, BuOH
  Observed absorption (ε): (190000)
  Observed absorption λmax: 589 nm
[2]; Table 10, C6H6
  Observed absorption (ε): (127000)
  Observed absorption λmax: 584 nm
[2]; Table 10, DMF
  Observed absorption (ε): (183000)
  Observed absorption λmax: 589 nm
[2]; Table 10, MeOH
  Observed absorption (ε): (173000)
  Observed absorption λmax: 583 nm
[2]; Table 10, OcOH
  Observed absorption (ε): (180000)
  Observed absorption λmax: 590 nm
[2]; Table 12, C6H6
  Absorption Exp wavelength: 585 nm
[2]; Table 12, MeOH
  Absorption Exp wavelength: 583 nm
[2]; Table 15, BuOH
  Observed emission (Φ): 0.61
  Observed emission λmax: 609 nm
[2]; Table 15, C6H6
  Observed emission (Φ): 0.20
  Observed emission λmax: 605 nm
[2]; Table 15, DMF
  Observed emission (Φ): 0.94
  Observed emission λmax: 611 nm
[2]; Table 15, MeOH
  Observed emission (Φ): 0.26
  Observed emission λmax: 603 nm
[2]; Table 15, OcOH
  Observed emission (Φ): 0.99
  Observed emission λmax: 609 nm
[2]; from C6H6 to DMF
  Observed red shift of emission ΔEem: 0.020 eV
  Observed red shift of emission Δλmax: 6 nm
[2]; from C6H6 to OcOH
  Observed red shift of absorption Δλmax: 6 nm
[2]; from OcOH to MeOH
  Observed blue shift of absorption Δλmax: 7 nm
[3]
  kr(rel) (relative rate constants for product formation during reaction with singlet oxygen produced chemically): 1.00

## C[n+]1ccc(/C=C/C=C/C2=C([O-])c3ccccc3S2(=O)=O)cc1 [P-SO(4)]
[1]; MeOH
  kph * 10^6 (absolute rate of photobleaching): 28 s^−1
[1]; [4]
  kph(rel) (relative rate of photobleaching): 82
[2]; Table 10, BuOH
  Observed absorption (ε): (64000)
  Observed absorption λmax: 593 nm
[2]; Table 10, C6H6
  Observed absorption (ε): (178000)
  Observed absorption λmax: 644 nm
[2]; Table 10, CH2Cl2
  Observed absorption (ε): (187000)
  Observed absorption λmax: 629 nm
[2]; Table 10, CH3CN
  Observed absorption (ε): (93000)
  Observed absorption λmax: 596 nm
[2]; Table 10, DMF
  Observed absorption (ε): (99000)
  Observed absorption λmax: 604 nm
[2]; Table 10, DMSO
  Observed absorption (ε): (77000)
  Observed absorption λmax: 599 nm
[2]; Table 10, EtOH
  Observed absorption (ε): (61000)
  Observed absorption λmax: 557 nm
[2]; Table 10, MeOH
  Observed absorption (ε): (54000)
  Observed absorption λmax: 580 nm
[2]; Table 10, OcOH
  Observed absorption (ε): (80000)
  Observed absorption λmax: 612 nm
[2]; Table 10, i-PrOH
  Observed absorption (ε): (68000)
  Observed absorption λmax: 597 nm
[2]; Table 15, BuOH
  Observed emission (Φ): 0.048
  Observed emission λmax: 640 nm
[2]; Table 15, C6H6
  Observed emission (Φ): 0.002
  Observed emission λmax: 656 nm
[2]; Table 15, CH2Cl2
  Observed emission (Φ): 0.082
  Observed emission λmax: 650 nm
[2]; Table 15, CH3CN
  Observed emission (Φ): 0.067
  Observed emission λmax: 632 nm
[2]; Table 15, DMF
  Observed emission (Φ): 0.10
  Observed emission λmax: 635 nm
[2]; Table 15, DMSO
  Observed emission (Φ): 0.067
  Observed emission λmax: 636 nm
[2]; Table 15, EtOH
  Observed emission (Φ): 0.029
  Observed emission λmax: 634 nm
[2]; Table 15, MeOH
  Observed emission (Φ): 0.018
  Observed emission λmax: 630 nm
[2]; Table 15, OcOH
  Observed emission (Φ): 0.082
  Observed emission λmax: 644 nm
[2]; Table 15, i-PrOH
  Observed emission (Φ): 0.049
  Observed emission λmax: 636 nm
[3]
  kr(rel) (relative rate constants for product formation during reaction with singlet oxygen produced chemically): 60.3
